The conditions of assay [1]: intravenous administration, Konturek et al; cited from earlier work.
Assay [2] has as its system hyperphagic obese mice. As to conditions: cited from earlier work.
Assay [3] relates to estradiol benzoate-progesterone-treated ovariectomized rats. The assay can be described thus: Ingestive behavior noticed after ivt hPP during LH release studies. It is filed as in vivo, rat. The note with it: intraventricular (ivt) administration. The text has this:
251; Morley et al (1973), Neurosci. Biobehav. Revs. 7: 281]. Recently, Tatemoto, Proc. Natl. Acad. Sci. USA. […] The detailed distribution pattern of neurons displaying NPY-like immunoreactivity in the rat brain has been described [Allen et al (1983), Science 221:877; Allen et al (1983), 13th Ann. Mtg. Soc. Neurosci. 9:291 (Abstr.); O'Donohue et al (1983), 13th Ann. Mtg. Soc. Neurosci. 9:290 (Abstr.)]. The physiological significance of NPY-like immunoreactivity in the rat brain is presently unknown.

The subject of assay [4] is ovariectomized rats pretreated with estradiol benzoate plus progesterone. The assay is described as follows: Food intake and ingestive behavior after two ivt injections, Example 1. It is filed as in vivo, rat. The protocol: Adult female rats (CRL:CD® (SD)BR, Charles River Breeding Labs, Wilmington, MA) were maintained in individual wire bottom cages under controlled temperature and light (lights on 0500-1900 h) with ad libitum access to food and water. Rats were ovariectomized and permanent cannulae were implanted in the third cerebral ventricle under pentobarbital anesthesia (40 mg/kg, […]). Eleven to 13 days after surgery, rats were treated with estradiol benzoate (30 μg in 0.1 ml sesame oil, sc) and progesterone (15 mg in 0.3 ml sesame oil, sc). Two days later […], food and water were removed and patency of the ivt cannula was checked by observing efflux of cerebrospinal fluid. […] Immediately after the ivt injections, rats were returned to their home cages which contained a known amount of rat chow and observed for 60 min. The behavior was recorded in 5 mutually exclusive categories: eating, grooming, locomotion, resting and other [Blundell, Bio-grammar of Feeding: Pharmacological Manipulations and Their Interpretations. In: Cooper, S. J. (ed) Theory in Psychopharmacology, Academic Press, N.Y., Vol. I: 233 (1981)] the following measurements were derived; total food intake (g); latency to feeding response (min); duration of time spent eating (min); number of eating bouts (n); duration of eating bouts (min) and local eating rate (g/min). Local eating rate is a measure of amount of food consumed per unit time spent eating.
Although no attempt was made to quantify the water intake, the latency to drinking and amount of time spent on drinking were monitored.
The number of animals feeding and drinking after peptide treatment were compared with saline-treated rats by the Fisher exact probability test. Parameters of ingestive behavior of controls vs. peptide treated groups were analyzed by the Mann-Whitney U test. Comparisons within groups of parameters after the first and second injections were made with the Wilcoxon matched pairs - signed rank test.
(*=P<0.05; **=P<0.01, Mann-Whitney U tests; a=p<0.05; b=P<0.025; c=P<0.005, Fisher Exact Probability Test) and S=saline.

Assay [5] relates to normal adult male rats. The assay is described as follows: Food intake after NPY and RPP by the Example 1 procedure, Example 3. It is filed as in vivo, rat.
Where [6] appears, read: hyperphagic obese mice, Malaisse et al.
[7] abbreviates: obese mice, intravenous, Zipf et al.
Where [8] appears, read: 2 or 10 μg ivt, after second injection, P<0.02.

Like-named read-outs stand apart in the source and are kept apart here. Ends that are not written are not given here.

Regarding `NC(=O)[C@@H]1CCCN1C(=O)[C@H](Cc1cnc[nH]1)NC(=O)[C@@H]1CCC(=O)N1` [TRH, p-Glu-His-Pro-NH2], the food intake result in assay [1] is recorded as “suppressed food intake”.

Turning to “bovine pancreatic polypeptide [bovine PP]”, in assay [2] (setting [6]), the body weight gain entry is “suppressed body weight gain” and the food intake result was “reduced food intake”. In addition, in assay [2] (setting [7]), the food intake entry is “decrease of food intake” and the weight gain result is on record as “decrease in weight gain”.

On to “human pancreatic polypeptide (APLEPVYPGDNATPEQMAQYAADLRRYINMLTRPRY; ends and bridges not checked; UniProt P01298 30-65, looked up) [hPP, human pancreatic polypeptide, straight-chain 36 amino acid residues; from Boehringer Mannheim]”, for which the ingestive behavior result in assay [3] was “enhanced ingestive behavior”. Moreover, the “rats that ate after the first injection” value in assay [4] (2 μg ivt) is listed as 4/6. Further, in assay [4] (10 μg ivt), the “rats in which the drinking response preceded the feeding response” value is 3/7 and the “rats that ate after the first injection” value is on record as 5/7. In assay [4] (setting [8]), the “amount of time spent drinking” value is listed as “only the higher does of hPP produced a similar response” and the “number of animals drinking” value is listed as “only the higher does of hPP produced a similar response”. The cumulative food intake result in assay [4] (2 or 10 μg ivt, compared with saline treated control rats) was “stimulated cumulative food intake”. The “number of rats grooming during the observation periods” value in assay [4] (ivt) was “Neither peptide altered the number of rats grooming”.

Take “rat pancreatic polypeptide (APLEPMYPGDYATHEQRAQYETQLRRYINTLTRPRY; ends and bridges not checked; UniProt P06303 30-65, looked up) [RPP, rat pancreatic polypeptide, member of the vertebrate pancreatic polypeptides (Pancreatic Hormone III)]”: the cumulative food intake result in assay [5] is given as “enhanced cumulative food intake which is dose-dependent”.

The values above are taken from patent publication US4701441A, “Methods and compositions for stimulation of appetite” (University of Florida, priority 1985, dated 1987).
